The source of these data is patent US9936699B2, “Halogen-substituted compounds” (BAYER CROPSCIENCE AKTIENGESELLSCHAFT, priority 2014, dated 2018).

Molecules are shown by their SMILES.

Data set [1] deals with green peach aphid (Myzus persicae). Nature of the data set: Myzus persicae spray test (Chinese cabbage leaf disks). It counts as in vivo. As to the method: Myzus persicae—Spray Test
(§1) Solvent: 78.0 parts by weight acetone
(§2) • 1.5 parts by weight dimethylformamide Emulsifier: alkylarylpolyglycol ether
Chinese cabbage (Brassica pekinensis) leaf disks infected with all instars of the green peach aphid (Myzus persicae), are sprayed with a preparation of the active ingredient of the desired concentration.
(§3) After 6 days mortality in % is determined.

Data set [2] deals with adult unfed cat fleas (Ctenocephalides felis). Nature of the data set: Ctenocephalides felis oral test (CTECFE). It counts as in vivo. Particulars: 48 h, read-out: mortality in %. As to the method: Ctenocephalides felis—Oral Test (CTECFE)
(§4) Solvent: dimethyl sulfoxide
Approximately 20 adult unfed cat fleas (Ctenocephalides felis) are placed in flea chambers. The blood chamber, sealed with parafilm on the bottom, are filled with cattle blood supplied with compound solution and placed on the gauze covered top of the flea chamber, so that the fleas are able to suck the blood. The blood chamber is heated to 37° C. whereas the flea chamber is kept at room temperature.

The test system of data set [3] is two-spotted spider mite (Tetranychus urticae). Nature of the data set: Tetranychus urticae spray test; OP-resistant (bean plants). It counts as in vivo.
Data set [4] concerns cattle ticks (Boophilus microplus) strane Parhurst, SP-resistant. In words: Boophilus microplus dip test (BOOPMI Dip). Particulars: 100 ppm, egg deposition after 7 days. It counts as in vivo.
Text: Boophilus microplus—Diptest (BOOPMI Dip)
Test animal: cattle ticks (Boophilus microplus) strane Parhurst, SP-resistant
as §4
This compound solution is pipetted into tubes. 8-10 engorged, adult, female cattle ticks (Boophilus microplus) are placed in perforated tubes. These tubes are immersed in the aqueous compound solution until the ticks are completely moistened. After the liquid has drained off, the ticks are transferred to a filter paper in a plastic tray and stored in a climate chamber.
(§5) After 7 days egg deposition of fertile eggs is monitored. Eggs where fertility is not visible are stored in a climate chamber till hatching after about 42 days. An efficacy of 100% means all eggs are infertile; 0% means all eggs are fertile.

The test system of data set [5] is adult engorged female ticks (Boophilus microplus). In words: Boophilus microplus injection test (BOOPMI Inj). It is filed as in vivo. The following applies: 20 μg/animal, egg deposition after 7 days. As to the method:
Boophilus microplus—Injectiontest (BOOPMI Inj)
as §4
Five adult engorged female ticks (Boophilus microplus) are injected with 1 μl compound solution into the abdomen. The ticks are transferred into replica plates and incubated in a climate chamber.
as §5

Data set [6] deals with fall armyworm larvae (Spodoptera frugiperda). In words: Spodoptera frugiperda spray test (maize leaf sections). It counts as in vivo. The following applies: for mortality in %: 100 g/ha, after 7 days.
Text: Spodoptera frugiperda—Spray Test
as §1, §2
Maize (Zea mays) leaf sections are sprayed with a preparation of the active ingredient of the desired concentration. Once dry, the leaf sections are infested with fall armyworm larvae (Spodoptera frugiperda).

Data set [7] has as its system Tick nymphs (Amblyomma hebraeum). Nature of the data set: Amblyomma hebraeum test (AMBYHE). It counts as in vivo. The protocol: Amblyomma hebraeum—Test (AMBYHE)
as §4
Tick nymphs (Amblyomma hebraeum) are placed in perforated plastic beakers and immersed in the aqueous compound solution for one minute. Ticks are transferred to a filter paper in a petridish and incubated in a climate chamber.

The nature of data set [8]: logP determination by HPLC on reversed-phase column (C18), EEC Directive 79/831 Annex V.A8. It counts as physicochemical. Particulars: reversed-phase C18, acetonitrile/water with formic acid.
For data set [9], the system named is two spotted spidermite (Tetranychus urticae). Nature of the data set: Tetranychus urticae spray test OP-resistant (French bean leaf disks). It counts as in vivo. The protocol: Tetranychus urticae—Spray Test OP-Resistant
as §1, §2
French bean (Phaseolus vulgaris) leaf disks which are heavily infested with all stages of the two spotted spidermite (Tetranychus urticae) are sprayed with a preparation of the active ingredient of the desired concentration.
as §3

The test system of data set [10] is larvae of the Australian sheep blowfly (Lucilia cuprina). Nature of the data set: Lucilia cuprina test (LUCICU). It counts as in vivo. Particulars: for mortality in %: 100 ppm, after 2 days. The protocol: Lucilia cuprina—Test (LUCICU)
as §4
10 mg active compound are dissolved in 0.5 ml Dimethylsulfoxid. Serial dilutions are made to obtain the desired rates.
Approximately 20 […] instar larvae of the Australian sheep blowfly (Lucilia cuprina) are transferred into a test tube containing minced horse meat and compound solution of the desired concentration.

The test system of data set [11] is adult house flies (Musca domestica). In words: Musca domestica test (MUSCDO). It counts as in vivo. The following applies: for mortality in %: 100 ppm, after 2 days.
Text: Musca domestica—Test (MUSCDO)
as §4
10 adult house flies (Musca domestica) are transferred into a container, containing a sponge soaked with a mixture of sugar solution and compound solution of the desired concentration.

Data set [12] deals with mustard beetle larvae (Phaedon cochleariae). In words: Phaedon cochleariae spray test (cabbage leaves). The following applies: in Brassica oleracea, 168 h, read-out: mortality in %.
For data set [13] the test system is unchanged. Nature of the data set: Phaedon cochleariae spray test (Chinese cabbage leaf disks). It counts as in vivo. Particulars: foliar, 168 h, read-out: mortality in %. From the text:
Phaedon cochleariae—Spray Test
Solvent: 78.0 parts by weight of acetone
• 1.5 parts by weight of dimethylformamide Emulsifier: alkylarylpolyglycol ether
Chinese cabbage (Brassica pekinensis) leaf disks are sprayed with a preparation of the active ingredient of the desired concentration.

For data set [14], the system named is adult cat fleas (Ctenocephalides felis). Nature of the data set: Ctenocephalides felis in-vitro contact test, adult cat flea. It is filed as in vivo. The following applies: 5 μg/cm^2 (=500 g/ha), after 48 hours. As to the method: Ctenocephalides felis—In-Vitro Contact Tests Adult Cat Flea
(§6) 9 mg compound is solved in 1 ml acetone and diluted with acetone to the desired concentration. 250 μl of the test solution is filled in 25 ml glass test tubes and homogeneously distributed on the inner walls by rotation and tilting on a shaking device (2 h at 30 rpm). With a compound concentration of 900 ppm, an inner surface of 44.7 cm^2 and a homogeneous distribution, a dose of 5 μg/cm^2 is achieved.
After the solvent has evaporated, each test tube is filled with 5-10 adult cat fleas (Ctenocephalides felis), closed with a perforated lid and incubated in a lying position at room temperature and relative humidity. After 48 hours efficacy is determined. The fleas are patted on the ground of the tubes and are incubated on a heating plate at 45-50° C. for at most 5 minutes. Immotile or uncoordinated moving fleas, which are not able to escape the heat by climbing upwards, are marked as dead or moribund.
An efficacy of 100% means all fleas are dead or moribund; 0% means no fleas are dead or moribund.

The test system of data set [15] is adult brown dog ticks (Rhipicephalus sanguineus). In words: Rhipicephalus sanguineus in-vitro contact test with adult brown dog ticks. It is filed as in vivo. The following applies: 5 μg/cm^2 (=500 g/ha), after 48 hours. As to the method:
Rhipicephalus sanguineus—In-Vitro Contact Tests with Adult Brown Doe Ticks
as §6
After the solvent has evaporated, each test tube is filled with 5-10 adult brown dog ticks (Rhipicephalus sanguineus), closed with a perforated lid and incubated in a lying position at room temperature and relative humidity. After 48 hours efficacy is determined. The ticks are patted on the ground of the tubes and are incubated on a heating plate at 45-50° C. for at most 5 minutes. Immotile or uncoordinated moving ticks, which are not able to escape the heat by climbing upwards, are marked as dead or moribund.
An efficacy of 100% means all ticks are dead or moribund; 0% means no ticks are dead or moribund.

In data set [16] the test system is green peach aphid (Myzus persicae). Nature of the data set: Myzus persicae spray test (pepper leaves). It counts as in vivo. The following applies: after 6 days.

For the compound `CSc1c(C(F)(F)C(F)(F)F)nn(C)c1-n1cc(-c2ccc(Cl)c(C(=O)NC3(C#N)CC3)c2)cn1` [Example I-02, 2-chloro-N-(1-cyanocyclopropyl)-5-[2′-methyl-4′-(methylsulfanyl)-5′-(pentafluoroethyl)-2′H-1,3′-bipyrazol-4-yl]benzamide], the mortality at 100 g/ha in data set [1] (Myzus persicae, foliar, 144 h, read-out: mortality in %) was 100%; in data set [6] (Spodoptera frugiperda, 168 h, read-out: mortality in %), 100%; in data set [9] (Tetranychus urticae, foliar, 144 h, read-out: mortality in %) it was 100%; in data set [13] it was 100%. The mortality at 100 ppm in data set [2] is 100%; in data set [7] (Amblyomma hebraeum, 1008 h, read-out: mortality in %) it was 100%; in [10] (Lucilia cuprina, 48 h, read-out: mortality in %), 100%; in data set [11] (Musca domestica, 48 h, read-out: mortality in %) it was 90%. Also, the mortality at 4 ppm in data set [3] (Tetranychus urticae, 168 h, read-out: mortality in %) was 100%; in data set [12], 100%. Moreover, the “efficacy (infertile eggs)” value in [4] and in data set [5] was 100% each time. This compound also returned a log partition coefficient (logP) in data set [8] of 3.56. In data set [8] (reversed-phase C18 HPLC column), this compound came in with a chromatographic logP of 3.58.

Consider `CCSc1c(C(F)(F)C(F)(F)F)nn(C)c1-n1cc(-c2ccc(Cl)c(C(=O)NC3(C#N)CC3)c2)cn1` [Example I-15], for which the “efficacy (infertile eggs)” value in data set [4] and in [5] was 100% in each case. Also, the mortality in % in data set [6] was found to be 100%; in [7] (100 ppm, after 42 days), 100%; in data set [11], 90%. This compound also came in with a lipophilicity (logP) in data set [8] of 3.76. Further, in data set [14], the “efficacy (fleas dead or moribund)” value stood at 100%. Besides, in [15], the “efficacy (ticks dead or moribund)” value was 100%.

Consider `Cc1ccc(-c2cnn(-c3c(S(C)(=O)=O)c(C(F)(F)C(F)(F)F)nn3C)c2)cc1C(=O)NC1CC1` [Example I-09], for which the “efficacy (infertile eggs)” value worked out at 80% in data set [4] and 100% in data set [5]. In data set [8], this compound displayed a logP of 2.75. Moreover, the values for the mortality in % in data set [10] and in data set [11] were 90% and 80%, respectively. In addition, in data set [14], the “efficacy (fleas dead or moribund)” value is recorded as 100%.

Take `Cn1nc(C(F)(F)C(F)(F)F)c([S+](C)[O-])c1-n1cc(-c2ccc(Cl)c(C(=O)NC3CC3)c2)cn1` (stereo not shown) [Example I-06]: the mortality in % in [16] (20 ppm) worked out at 99%; in data set [3] (20 ppm, after 7 days), 90%; in data set [6] it was 100%; in [9] (100 g/ha, after 6 days) it was 90%; in data set [11] it was 100%. Moreover, in [5], the “efficacy (infertile eggs)” value is on record as 100%. Also, the lipophilicity (logP) in data set [8] stood at 2.60. In addition, in data set [14], the “efficacy (fleas dead or moribund)” value was determined as 100%.

As to `Cn1nc(C(F)(F)C(F)(F)F)c([S+](C)[O-])c1-n1cc(-c2cnc(Cl)c(C(=O)NC3(C#N)CC3)c2)cn1` (stereo not shown) [Example I-20], the mortality in % in data set [16] (4 ppm) came to 95%; in data set [11], 90%. Moreover, the “efficacy (infertile eggs)” value in data set [5] turned out to be 100%. For the same compound, the lipophilicity (logP) in data set [8] was determined as 2.23.

For the compound `CSc1c(C(F)(F)C(F)(F)F)nn(C)c1-n1cc(-c2ccc(Cl)c(C(=O)NC3CC3)c2)cn1` [Example I-12], the “efficacy (infertile eggs)” value in data set [4] and in data set [5] was 100% throughout. The mortality in % in data set [6] and in data set [11] was 100% throughout. In addition, in data set [8], the log partition coefficient (logP) stood at 3.65. For the same compound, the “efficacy (fleas dead or moribund)” value in data set [14] amounted to 100%. Moreover, the “efficacy (ticks dead or moribund)” value in data set [15] came out at 100%.

Turning to `Cc1ccc(-c2cnn(-c3c([S+](C)[O-])c(C(F)(F)C(F)(F)F)nn3C)c2)cc1C(=O)NC1CC1` (stereo not shown) [Example I-18], in data set [5], the “efficacy (infertile eggs)” value is reported as 100%. The same compound showed a lipophilicity (logP) in data set [8] of 2.57. The “efficacy (fleas dead or moribund)” value in data set [14] amounted to 100%. The “efficacy (ticks dead or moribund)” value in data set [15] was 80%.

Regarding `Cc1ccc(-c2cnn(-c3c(S(C)(=O)=O)c(C(F)(F)C(F)(F)F)nn3C)c2)cc1C(=O)NC1(C#N)CC1` [Example I-23], the mortality in % in data set [1] (20 g/ha, after 6 days) is reported as 100%. In addition, the “efficacy (infertile eggs)” value in data set [5] is given as 100%. The compound further gave a logP in [8] of 2.79.

For `Cn1nc(C(F)(F)F)c(S(C)(=O)=O)c1-n1cc(-c2ccc(Cl)c(C(=O)NC3CC3)c2)cn1` [Example I-05], the figures for the mortality in % in data set [16] (20 ppm) and in [10] were 100% and 90%, respectively. The “efficacy (infertile eggs)” value in [5] came out at 100%. Also, in data set [8], the logP amounted to 2.34.

One may read the mortality as the percentage killed. By logP is commonly meant a log measure of how a compound divides between an organic and an aqueous phase. What is called chromatographic logP is lipophilicity estimated from chromatographic retention. Higher therefore signals higher lipophilicity.
